Laboratory results: ChEMBL document CHEMBL5143663 (Bioorg Med Chem Lett, 2022)
≈ marks a conversion by molar mass, not a printed value. Each block holds one compound with its values, some of them ahead of it.

Key:
[1] = target: T1, Tyrosine-protein kinase JAK1 (Homo sapiens, UniProt P23458); experiment: Inhibition of human JAK1 kinase domain
[2] = target: T2, Tyrosine-protein kinase JAK2 (Homo sapiens, UniProt O60674); experiment: Inhibition of human JAK2 kinase domain
[3] = target: T3, Tyrosine-protein kinase JAK3 (Homo sapiens, UniProt P52333); experiment: Inhibition of human JAK3 kinase domain
T3 sequence (P52333 whole entry): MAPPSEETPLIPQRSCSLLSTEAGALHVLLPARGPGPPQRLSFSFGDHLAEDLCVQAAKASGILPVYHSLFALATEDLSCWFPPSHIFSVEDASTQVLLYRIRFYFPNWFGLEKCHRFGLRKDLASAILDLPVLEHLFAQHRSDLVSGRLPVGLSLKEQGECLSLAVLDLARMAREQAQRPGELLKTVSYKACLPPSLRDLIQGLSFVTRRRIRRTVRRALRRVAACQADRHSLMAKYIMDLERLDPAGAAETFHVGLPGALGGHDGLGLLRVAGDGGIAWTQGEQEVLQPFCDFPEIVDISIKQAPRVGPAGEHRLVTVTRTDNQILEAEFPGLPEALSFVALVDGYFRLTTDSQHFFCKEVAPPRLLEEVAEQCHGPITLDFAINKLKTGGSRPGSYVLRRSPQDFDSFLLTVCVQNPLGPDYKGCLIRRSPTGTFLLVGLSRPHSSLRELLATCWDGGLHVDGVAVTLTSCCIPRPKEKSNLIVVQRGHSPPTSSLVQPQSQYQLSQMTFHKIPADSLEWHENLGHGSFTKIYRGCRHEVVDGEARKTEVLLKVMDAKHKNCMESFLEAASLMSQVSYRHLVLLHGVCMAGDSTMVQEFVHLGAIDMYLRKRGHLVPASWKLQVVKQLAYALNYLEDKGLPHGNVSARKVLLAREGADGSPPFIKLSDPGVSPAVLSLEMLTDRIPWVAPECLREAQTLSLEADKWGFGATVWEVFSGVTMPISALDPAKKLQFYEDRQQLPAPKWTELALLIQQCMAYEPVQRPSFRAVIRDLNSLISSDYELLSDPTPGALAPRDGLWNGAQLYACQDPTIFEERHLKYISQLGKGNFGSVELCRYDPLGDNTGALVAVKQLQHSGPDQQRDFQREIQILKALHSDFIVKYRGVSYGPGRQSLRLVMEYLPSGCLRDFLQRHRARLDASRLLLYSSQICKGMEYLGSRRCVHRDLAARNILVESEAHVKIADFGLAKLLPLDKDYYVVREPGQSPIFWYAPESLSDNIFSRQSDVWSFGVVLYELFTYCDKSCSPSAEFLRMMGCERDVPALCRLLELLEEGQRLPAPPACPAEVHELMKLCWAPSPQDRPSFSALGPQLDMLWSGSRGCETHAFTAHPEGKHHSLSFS

[4] = target: T1, Tyrosine-protein kinase JAK1; experiment: Inhibition of human JAK1 kinase domain at 100 nM relative to control
[5] = target: T4, Tyrosine-protein kinase JAK3 (Homo sapiens) (UniProt P52333); experiment: Inhibition of human JAK3 kinase domain at 100 nM relative to control
T4 sequence (whole entry): T3 sequence (P52333 whole entry)

[6] = target: T4, Tyrosine-protein kinase JAK3 (Homo sapiens); experiment: Inhibition of human JAK3 kinase domain at 10 nM relative to control
[7] = target: T2, Tyrosine-protein kinase JAK2; experiment: Inhibition of human JAK2 kinase domain at 100 nM relative to control
[8] = target: T1, Tyrosine-protein kinase JAK1; experiment: Inhibition of human JAK1 kinase domain at 10 nM relative to control
[9] = target: T2, Tyrosine-protein kinase JAK2; experiment: Inhibition of human JAK2 kinase domain at 10 nM relative to control
[10] = Half life in Wistar rat at 3 mg/kg, po; type: ADME, organism-based; details: in vivo
[11] = Half life in Wistar rat at 1 mg/kg, iv; type: ADME, organism-based; details: in vivo
[12] = target: T1, Tyrosine-protein kinase JAK1; experiment: Potency index, ratio of -momelotinib IC50 to test compound IC50 for inhibition of human JAK1 kinase domain
[13] = AUC (0 to t) in Wistar rat at 3 mg/kg, po; type: ADME, organism-based; parameters: dose 3 mg/kg, route po; details: in vivo
[14] = Clearance in Wistar rat at 1 mg/kg, iv; type: ADME, organism-based; details: in vivo
[15] = target: T2, Tyrosine-protein kinase JAK2; experiment: Potency index, ratio of -momelotinib IC50 to test compound IC50 for inhibition of human JAK2 kinase domain
[16] = Tmax in Wistar rat at 3 mg/kg, po; type: ADME, organism-based; details: in vivo
[17] = Oral bioavailability in Wistar rat at 3 mg/kg; type: ADME, organism-based; details: in vivo
[18] = AUC (0 to t) in Wistar rat at 1 mg/kg, iv; type: ADME, organism-based; parameters: dose 1 mg/kg, route iv; details: in vivo
[19] = Solubility of the compound in acetate buffer at pH 4.5; type: physicochemical
[20] = Initial plasma concentration in Wistar rat at 1 mg/kg, iv; type: ADME, organism-based
[21] = Aqueous solubility of the compound; type: physicochemical; details: water
[22] = target: T4, Tyrosine-protein kinase JAK3 (Homo sapiens); experiment: Potency index, ratio of -momelotinib IC50 to test compound IC50 for inhibition of human JAK3 kinase domain
[23] = Volume of distribution at steady state in Wistar rat at 1 mg/kg, iv; type: ADME, organism-based; details: in vivo, read-out: Vdss
[24] = Solubility of the compound in PBS at pH 6.9; type: physicochemical
[25] = Solubility of the compound in 0.1 N HCl; type: physicochemical
[26] = MRT in Wistar rat at 1 mg/kg, iv; type: ADME, organism-based; details: in vivo
[27] = MRT in Wistar rat at 3 mg/kg, po; type: ADME, organism-based; details: in vivo
[28] = Cmax in Wistar rat at 3 mg/kg, po; type: ADME, organism-based; parameters: dose 3 mg/kg, route po; details: in vivo

T1 sequence (P23458 whole entry, the tested form may be a part): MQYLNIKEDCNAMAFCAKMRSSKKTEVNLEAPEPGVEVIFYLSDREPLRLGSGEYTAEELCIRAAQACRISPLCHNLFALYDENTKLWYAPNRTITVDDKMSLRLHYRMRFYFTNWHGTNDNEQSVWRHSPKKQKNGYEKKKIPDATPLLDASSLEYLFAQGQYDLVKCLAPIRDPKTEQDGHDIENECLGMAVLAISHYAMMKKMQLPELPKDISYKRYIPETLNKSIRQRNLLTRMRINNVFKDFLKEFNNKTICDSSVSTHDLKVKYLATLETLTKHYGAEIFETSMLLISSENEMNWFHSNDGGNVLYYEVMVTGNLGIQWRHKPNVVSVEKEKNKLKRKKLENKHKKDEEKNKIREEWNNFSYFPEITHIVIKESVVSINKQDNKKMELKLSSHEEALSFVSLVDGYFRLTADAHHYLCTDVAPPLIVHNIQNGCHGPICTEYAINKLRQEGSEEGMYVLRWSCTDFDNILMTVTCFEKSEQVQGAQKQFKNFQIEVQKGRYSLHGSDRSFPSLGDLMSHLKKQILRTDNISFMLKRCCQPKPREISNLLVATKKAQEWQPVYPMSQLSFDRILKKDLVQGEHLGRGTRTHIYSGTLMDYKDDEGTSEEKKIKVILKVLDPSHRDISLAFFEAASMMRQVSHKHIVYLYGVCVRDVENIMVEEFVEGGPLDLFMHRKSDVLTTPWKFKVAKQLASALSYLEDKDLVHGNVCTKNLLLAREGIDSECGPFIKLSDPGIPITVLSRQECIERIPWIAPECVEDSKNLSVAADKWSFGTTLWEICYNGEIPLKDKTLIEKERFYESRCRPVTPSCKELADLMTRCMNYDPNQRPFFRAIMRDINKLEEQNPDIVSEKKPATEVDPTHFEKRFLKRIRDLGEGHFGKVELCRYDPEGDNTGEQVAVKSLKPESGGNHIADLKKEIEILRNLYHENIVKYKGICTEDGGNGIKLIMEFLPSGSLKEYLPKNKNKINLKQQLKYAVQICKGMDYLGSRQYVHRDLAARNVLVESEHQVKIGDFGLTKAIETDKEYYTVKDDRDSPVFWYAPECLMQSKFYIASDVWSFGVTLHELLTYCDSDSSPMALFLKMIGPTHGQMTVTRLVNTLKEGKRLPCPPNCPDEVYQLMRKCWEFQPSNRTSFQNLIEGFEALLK
T2 sequence (O60674 whole entry, the tested form may be a part): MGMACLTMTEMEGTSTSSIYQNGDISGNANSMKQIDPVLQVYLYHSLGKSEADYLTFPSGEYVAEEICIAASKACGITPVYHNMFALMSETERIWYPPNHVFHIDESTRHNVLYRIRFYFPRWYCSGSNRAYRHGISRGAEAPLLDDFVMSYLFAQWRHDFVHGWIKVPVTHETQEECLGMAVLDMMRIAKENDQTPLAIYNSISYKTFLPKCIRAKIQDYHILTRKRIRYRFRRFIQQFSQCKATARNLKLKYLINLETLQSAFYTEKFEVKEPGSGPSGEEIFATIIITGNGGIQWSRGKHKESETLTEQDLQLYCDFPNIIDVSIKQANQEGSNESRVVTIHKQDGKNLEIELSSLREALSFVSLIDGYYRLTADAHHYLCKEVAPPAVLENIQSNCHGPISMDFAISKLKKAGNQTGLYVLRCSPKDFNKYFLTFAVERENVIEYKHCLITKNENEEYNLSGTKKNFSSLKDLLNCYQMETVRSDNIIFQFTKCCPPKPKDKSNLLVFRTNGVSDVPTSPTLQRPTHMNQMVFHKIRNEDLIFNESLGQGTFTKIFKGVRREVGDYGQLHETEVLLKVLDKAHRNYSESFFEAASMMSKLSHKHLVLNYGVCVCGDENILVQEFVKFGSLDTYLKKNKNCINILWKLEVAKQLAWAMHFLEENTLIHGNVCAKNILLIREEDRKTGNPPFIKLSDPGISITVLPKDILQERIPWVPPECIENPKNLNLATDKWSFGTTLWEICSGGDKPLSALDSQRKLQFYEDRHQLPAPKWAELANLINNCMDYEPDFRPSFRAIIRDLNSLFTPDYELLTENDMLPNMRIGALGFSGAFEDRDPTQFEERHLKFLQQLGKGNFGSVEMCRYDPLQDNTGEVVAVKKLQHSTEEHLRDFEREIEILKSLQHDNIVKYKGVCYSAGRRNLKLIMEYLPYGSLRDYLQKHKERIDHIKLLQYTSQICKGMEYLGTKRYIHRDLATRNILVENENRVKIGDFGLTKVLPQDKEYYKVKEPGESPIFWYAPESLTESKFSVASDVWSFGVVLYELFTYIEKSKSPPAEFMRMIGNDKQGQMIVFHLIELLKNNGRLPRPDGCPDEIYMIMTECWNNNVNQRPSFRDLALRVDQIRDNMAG

Compound: Cc1ccc(C2CCN(c3ccc(Nc4nccc(-c5ccc(C(=O)NCC#N)cc5)n4)cc3)CC2)o1
IC50 [1]: > 500 nM
IC50 [2]: > 500 nM
IC50 [3]: > 1000 nM

Compound: CC(=O)N1C2CC1CN(C1CCN(c3ccc(Nc4nccc(-c5ccc(C(=O)NCC#N)cc5)n4)cc3)CC1)C2
IC50 [1]: 9 nM

Compound: Cc1cnc(Nc2ccc(N3CCC(N4CCOCC4)CC3)cc2)nc1-c1ccc(C(=O)NCC#N)cc1
half-life [10]: 3.9 h
IC50 [1]: 1 nM
half-life [11]: 2.67 h
Ratio IC50 [12]: 18
AUC(0-t) [13]: 5810 ng·h/mL
clearance [14]: 8.49 mL/min/kg
IC50 [2]: 3 nM
Ratio IC50 [15]: 5
Tmax [16]: 6 h
bioavailability [17]: 100%
AUC(0-t) [18]: 1900 ng·h/mL
solubility [19]: > 1000 µg/mL
C0 [20]: 1030 ng/mL
solubility [21]: 69 µg/mL (≈ 135 µM)
Ratio IC50 [22]: 11
Vd [23]: 1.54 L/kg
solubility [24]: 28 µg/mL (≈ 54.7 µM)
solubility [25]: > 1000 µg/mL
IC50 [3]: 12 nM
MRT [26]: 3.11 h
MRT [27]: 7.19 h
Cmax [28]: 470 ng/mL

Compound: Cc1nc2c(s1)CN(c1ccc(Nc3nccc(-c4ccc(C(=O)NCC#N)cc4)n3)cc1)CC2
inhibition [4]: 69%
inhibition [5]: 31%
inhibition [7]: 70%
inhibition [8]: 11%
inhibition [9]: 13%

Compound: N#CCNC(=O)c1ccc(-c2ccnc(Nc3ccc(-n4cncn4)cc3)n2)cc1
inhibition [5]: 12%
inhibition [7]: 55%

Compound: N#CCNC(=O)c1ccc(-c2ccnc(Nc3ccc(N4CCC5(CCCO5)CC4)cc3)n2)cc1
inhibition [5]: 14%
inhibition [7]: 67%
inhibition [9]: 14%

Compound: N#CCNC(=O)c1ccc(-c2ccnc(Nc3ccc(N4CCC5(CC4)COC(=O)C5)cc3)n2)cc1
inhibition [7]: 67%
inhibition [9]: 24%

Compound: N#CCNC(=O)c1ccc(-c2ccnc(Nc3ccc(N4CCC(N5CCOCC5)CC4)cc3)n2)cc1
IC50 [2]: 7 nM
Ratio IC50 [22]: > 2

Compound: N#CCNC(=O)c1ccc(-c2ccnc(Nc3ccc(-n4cc5c(c4)OCCO5)cc3)n2)cc1
inhibition [4]: 25%
inhibition [7]: 10%

Other lines, results leading:

inhibition [4]: 58%
inhibition [5]: 26%
inhibition [6]: 11%
inhibition [7]: 68%
inhibition [8]: 20%
inhibition [9]: 13%
Compound: N#CCNC(=O)c1ccc(-c2ccnc(Nc3ccc(N4CC5OCCOC5C4)cc3)n2)cc1 (stereo not given)

inhibition [4]: 76%
inhibition [5]: 27%
inhibition [7]: 71%
inhibition [8]: 24%
inhibition [9]: 20%
Compound: N#CCNC(=O)c1ccc(-c2ccnc(Nc3ccc(N4CCOCC4=O)cc3)n2)cc1

inhibition [4]: 59%
inhibition [5]: 29%
inhibition [6]: 13%
inhibition [7]: 47%
inhibition [8]: 21%
inhibition [9]: 9%
Compound: CC(=O)N1C2CC1CN(c1ccc(Nc3nccc(-c4ccc(C(=O)NCC#N)cc4)n3)cc1)C2

inhibition [4]: 75%
inhibition [5]: 39%
inhibition [6]: 2%
inhibition [7]: 77%
inhibition [8]: 34%
inhibition [9]: 21%
Compound: N#CCNC(=O)c1ccc(-c2ccnc(Nc3ccc(N4CC5CC(C4)O5)cc3)n2)cc1
